Measured values reported in article PMC13206195, “Low‐dose cannabidiol increases plasma concentrations of amitriptyline: A clinical drug–drug interaction study” (British Journal of Clinical Pharmacology, 2025).

Assays:
CYP3A4 and CYP2B6 = settings: cited from earlier work
[1] = cited from earlier work
[2] = Comparison of PK parameters between visits (with vs without CBD) by mixed effects model ANOVA; settings: for AUC(0-t) / Cmax: human, in vivo
Description: (§1) This study was an open‐label, fixed sequence, 2‐way crossover study in 13 healthy participants. On Day 1, 25 mg amitriptyline and 50 mg tramadol were orally administered concurrently, followed by a wash‐out period of at least 7 days. On Day 8, 30 mg of oral CBD oil was administered 1 h prior to amitriptyline and tramadol. On Days 1 and 8, participants presented to the clinical research unit in the morning and were discharged in the evening, briefly returning in the morning of Days 2 and 9 for pharmacokinetic sampling.
To establish whether significant treatment effects could be detected, the PK parameters were compared with a mixed effects model analysis of variance (ANOVA) with treatment as a fixed factor and participants as a random factor on log‐transformed data. The general treatment effect and specific contrasts were reported with the estimated difference and the 95% confidence interval, the least square mean estimates and the p‐value. All calculations were performed using SAS for Windows V9.4 (SAS Institute, Inc., Cary, NC, USA).

[3] = Plasma pharmacokinetics (non-compartmental analysis) in open-label, fixed-sequence, 2-way crossover study in healthy participants; settings: fasted, plasma; for AUC(0-t) / Cmax: human, in vivo, po; for AUC(0-t): AUClast
Description: as §1
The cannabidiol formulation used in this study was Clinican®, an almond oil‐based formulation containing 10% cannabidiol and manufactured by Clinical Cannabis Care (Breukelen, the Netherlands) and administered orally with 240 mL of water following an overnight fast. Single doses of 30 mg CBD were administered. […] Furthermore, we estimated that the 30 mg CBD dose is at the upper end of the range of CBD intake of patients who use CBD‐rich varieties of medicinal cannabis (or formulations containing THC and CBD, like Sativex®) for treatment of neuropathic pain symptoms,[23] and as well as an approximately median dose for OTC CBD users. Cannabidiol was administered one hour prior to amitriptyline and tramadol (during visit 2 only) to offset the slower absorption expected from an oil‐based cannabinoid formulation, compared to the victim drugs.
Generic oral formulations of tramadol (50 mg tramadol hydrochloride capsule) and amitriptyline (25 mg hydrochloride tablet) were used in this study. These doses were at the low end of the therapeutic range, allowing for a safety margin for possible increases in plasma concentrations when co‐administered with CBD. Tramadol and amitriptyline were not known to induce or inhibit CYP‐enzymes in general, and no specific pharmacokinetic interactions between the two victim drugs were known to the investigators. […] However, this risk was deemed clinically irrelevant when low, single doses were administered to healthy volunteers. Based on these consideration regarding pharmacokinetics and safety, the two victim drugs were administered together in a cocktail design.
Sampling for pharmacokinetics was performed pre‐dose and at 1, 2, 3, 4, 5, 6, 8, 12 and 24 h following the administration of amitriptyline and tramadol. Approximately 4 mL blood was collected via an i.v. catheter placed in an antecubital vein in the arm in polypropylene K2EDTA tubes. Following collection, samples were immediately cooled on ice. Within 30 min of collection, plasma was separated by centrifugation at approximately 2000 g for 10 min and promptly transferred into amber glass vials and stored at […]. The samples were analysed by the iC42 Laboratory (Department of Anesthesiology, University of Colorado, Aurora, Colorado, USA). CBD and CBD metabolites were analysed using a validated assay that was previously published (CBD metabolite concentrations not reported in this manuscript).[33] Concentrations of amitriptyline, nortriptyline, tramadol and O‐desmethyltramadol were determined using a validated assay that was based on a previously published high‐performance liquid chromatography tandem mass spectrometry (HPLC‐MS/MS) method.[34] Details regarding the bioanalytical assays used to measure CBD, amitriptyline, nortriptyline, tramadol and O‐desmethyltramadol are located in the Supplementary Materials section.
R 3.6.1 for Windows (R Foundation for Statistical Computing/R development Core Team, Vienna, Austria, 2019), PKNCA package version 0.9.5, was used to calculate pharmacokinetic parameters. PK parameter calculations were based on actual sampling time.

CYP2D6 = settings: cited from earlier work
[4] = Visit 2 (with 30 mg CBD) vs Visit 1 (without CBD)
[5] = Visit 1 (Day 1): 25 mg amitriptyline + 50 mg tramadol oral, no CBD, N=13
[6] = Visit 2 (Day 8): 30 mg CBD oral 1 h prior to 25 mg amitriptyline + 50 mg tramadol, N=12
[7] = Geometric mean, Visit 1 (Day 1): 25 mg amitriptyline + 50 mg tramadol oral, no CBD, N=13
[8] = Geometric mean, Visit 2 (Day 8): 30 mg CBD oral 1 h prior to 25 mg amitriptyline + 50 mg tramadol, N=12
[9] = Mean, Visit 1 (Day 1): 25 mg amitriptyline + 50 mg tramadol oral, no CBD, N=13
[10] = Mean, Visit 2 (Day 8): 30 mg CBD oral 1 h prior to 25 mg amitriptyline + 50 mg tramadol, N=12
[11] = Median, Visit 1 (Day 1): 25 mg amitriptyline + 50 mg tramadol oral, no CBD, N=13
[12] = Median, Visit 2 (Day 8): 30 mg CBD oral 1 h prior to 25 mg amitriptyline + 50 mg tramadol, N=12

COc1cccc(C2(O)CCCCC2CN(C)C)c1 (centres unmarked) [Tramadol]
proportion of tramadol converted into N‐desmethyltramadol (N‐DSMT) by CYP3A4 and CYP2B6 (CYP3A4 and CYP2B6): approximately 20% | terminal half‐life [1]: 5 to 6 h | Clast, back transformed LSM Visit 1 ([2]; Visit 1: without CBD, mixed effects model on log-transformed data): 7.41 | AUClast, Ratio of LSMs [2, 4]: 1.04 | Clast, Ratio of LSMs [2, 4]: 0.97 | Cmax, Ratio of LSMs [2, 4]: 1.10 | Clast, back transformed LSM Visit 2 ([2]; Visit 2: with 30 mg CBD, mixed effects model on log-transformed data): 7.16 | AUC(0-t) [2]: 1130 ng·h/mL | Cmax [2]: 137 ng/mL | AUC(0-t) ([2]; 30 mg): 1180 ng·h/mL | Cmax ([2]; 30 mg): 151 ng/mL | Clast, Geometric mean [3, 5]: 7.4 ng/mL | Clast, Mean [3, 5]: 8.9 ng/mL | Clast, Median [3, 5]: 8.4 ng/mL | tlag, Median [3, 5]: 0.0 h | Clast, Geometric mean [3, 6]: 6.8 ng/mL | Clast, Mean [3, 6]: 8.7 ng/mL | Clast, Median [3, 6]: 8.0 ng/mL | tlag, Median [3, 6]: 0.0 h | AUC(0-t) [3, 7]: 1130 ng·h/mL | AUC(0-t) [3, 8]: 1150 ng·h/mL | AUC(0-t) [3, 9]: 1170 ng·h/mL | AUC(0-t) [3, 10]: 1210 ng·h/mL | AUC(0-t) [3, 11]: 1240 ng·h/mL | AUC(0-t) [3, 12]: 1160 ng·h/mL | Cmax [3, 7]: 137 ng/mL | Cmax [3, 8]: 150 ng/mL | Cmax [3, 9]: 141 ng/mL | Cmax [3, 10]: 153 ng/mL | Cmax [3, 11]: 135 ng/mL | Cmax [3, 12]: 155 ng/mL | proportion of tramadol converted into O‐desmethyltramadol (O‐DSMT) by CYP2D6 (CYP2D6): approximately 80%
